In paper PMC8445934, “Transformation of tenofovir into stable ProTide nanocrystals with long-acting pharmacokinetic profiles” (Nature Communications, 2021):
Values after ≈ are worked out from the molar mass of the structure shown. Values joined by “and” are separate entries in the source; they are usually repeats but may differ in a detail not shown here. Equal values may be shown once. Read-outs that look alike come from different tables or passages of the source.

How the values were obtained:
[1] = Aqueous and 1-octanol solubility (excess drug, shaking 48 h, UPLC-UV); assay type: physicochemical; details: for solubility at 48 h: water, thermodynamic from solid
Procedure: Samples were centrifuged at 20,000 × g for 10 min to separate the solubilized drug from insoluble pellet. Aqueous supernatants were frozen, lyophilized, and then resuspended in MeOH. 1-octanol supernatants were prepared for analysis by dilution in MeOH and samples analyzed for drug content by UPLC-UV (Waters Acquity H Class).

[2] = tested on: HIV-1ADA; experiment: Antiretroviral EC50/IC50 in MDM by HIV-1 RT activity after HIV-1ADA challenge; assay type: cell-based; details: for EC50: Human immunodeficiency virus 1, 240 h; for HIV-1 RT activity (Figure 2C source data): MDM, HIV-1ADA, replicates
Procedure: To determine long-term antiretroviral efficacy following a single treatment, MDMs were plated in flat-bottom 12-well plates at a density of 1.2 × 10^6 cells/well. […] After treatment, the cells were washed twice with PBS and cultured in a fresh culture medium without drug with half-media replacement every other day. On days 1, 5, 10, 15, 20, 25, and 30 following treatment, the cells were infected with HIV-1ADA (a macrophage-tropic viral strain) at a multiplicity of infection of 0.1 infectious particles/cell for 8 h. MDM were cultured, and media samples collected on day 10 for the measurement of HIV reverse transcriptase (RT) activity as previously described[64],[65]. Cells were fixed in 2% PFA at each time point, and expression of the HIV-1p24 antigen was determined by immunocytochemistry. […] After 4 h of viral challenge, the cells were washed with PBS and given fresh media that contained the same concentrations of drug (0.00005–5,000 nM). Cell supernatants were collected 10 days later and assayed for HIV-1 RT activity as described above. Replicate studies were performed in CEM-ss CD4+ T-cell cultures. Specifically, cells were plated in 96-well plates, centrifuged at 650 × g for 5 min, and resuspended in (0.1–1,000 nM) drug-containing media for 1 h. The subsequent challenge with HIV-1NL4–3-eGFP, cell culture, sample collection, and determination of HIV-1 RT activity were performed as previously reported[13],[15].

[3] = tested on: HIV-1NL4–3-eGFP; experiment: microbe, parasite or virus in culture; assay type: cell-based; details: replicates
Text: Supplementary Fi gur e 9. ProTide Biological Characterizations. […]
(1 picture or pasted object on this page, not shown here)

[4] = Prodrug chemical stability of dissociated nanoformulations in pH 2.0-10.3 buffers; assay type: physicochemical; details: buffers pH 2.0-10.3, 24 h
Procedure: The mixtures were centrifuged at 16,000 × g for 10 min. The supernatants were aspirated and stored at −80 °C until ultraperformance liquid chromatography tandem mass spectrometry (UPLC-MS/MS) analysis.

[5] = Prodrug stability in human plasma with or without heat-inactivation; assay type: in vitro ADME
Text: Point 4. “It would be interesting to see what happens with separate injection at 56 days. Will mast cells occur or was a IgG or IGM response measured?”
Response: The transient presence of mast cells at the intramuscular site of injection is a normal physiological tissue injury response and has been previously observed after intramuscular injection of phosphate buffered saline or aqueous nanocrystalline compounds (Journal of the Neurological Sciences […]
al, mast cells could affect host protein adsorption to the particle surface to influence phagocytosis efficiency, lymphatic nanoparticle uptake and prodrug hydrolytic susceptibility. Other findings by Paquette et al. noted that the foreign body response observed following intramuscular or subcutaneous dosing of […]
Res. 2014; 31(8): 2065–2077). […]
immunogenicity markers were previously measured (PLoS One. 2015 Dec 30;10(12):e0145966. doi:
10.1371/journal.pone.0145966). In our prior studies we have assessed temporal leukocyte responses, drug uptake and distribution following multiple site injection of nanoformulated drugs. […]
inflammatory responses heralded drug distribution to macrophage populations, regional lymph nodes, spleen and liver. This proceeded changes in myeloid populations as determined through flow cytometric tests of changed CD45, CD3, CD11b, F4/80, and GR-1 surface markers. […]

[6] = tested on: HIV-1; details: cited from earlier work
[7] = cited from earlier work
[8] = Figure 1C source data, read-out: water solubility, individual replicates
[9] = room temperature, 48 h, read-out: aqueous solubilities
[10] = Log Drug Concentration (uM) -12

CCCCCCCCCCCCCCCCCCCCCCOC(=O)[C@H](C)NP(=O)(CO[C@H](C)Cn1cnc2c(N)ncnc21)Oc1ccccc1 (stereo partly drawn) [M2TFV]
water solubility, individual replicates ([1]; Figure 1C source data): 0.01251
solubility at 48 h [1, 8]: 12.8 µg/mL (≈ 17.2 µM)
solubility at 48 h [1, 9]: 7 µg/mL (≈ 9.42 µM)
EC50 [2]: 45.8 nM
HIV-1 RT activity (Figure 2C source data) ([2]; 5e-5 nM): 13.739 and 9.752 and 35.142 and 27.238
HIV-1 RT activity (Figure 2C source data) ([2]; 0.0005 nM): 8.448 and 5.392 and 11.763 and 48.649
HIV-1 RT activity (Figure 2C source data) ([2]; 0.005 nM): 4.57 and 12.93 and 25.65
HIV-1 RT activity (Figure 2C source data) ([2]; 0.05 nM): 20.147 and 8.847 and 17.324 and 34.222
HIV-1 RT activity (Figure 2C source data) ([2]; 0.5 nM): 8.161 and 9.38 and 10.627 and 29.921
HIV-1 RT activity (Figure 2C source data) ([2]; 5 nM): 11.203 and 10.291 and 8.118 and 21.328
HIV-1 RT activity (Figure 2C source data) ([2]; 50 nM): 5.19 and 8.444 and 10.014 and 13.232
HIV-1 RT activity (Figure 2C source data) ([2]; 500 nM): 0.193 and 0.074 and 0.345 and 0.105
HIV-1 RT activity (Figure 2C source data) ([2]; 5000 nM): 0.109 and 0.079 and 0.087 and 0.068
% GFP Positive ([3]; Log Drug Concentration (uM) -1): 34.257% and 38.787% and 40.022%
% GFP Positive ([3]; Log Drug Concentration (uM) -2): 32.595% and 37.488% and 35.513%
% GFP Positive ([3]; Log Drug Concentration (uM) -3): 41.233% and 50.41% and 33.492%
% GFP Positive ([3]; Log Drug Concentration (uM) -4): 35.706% and 41.394% and 37.81%
% GFP Positive ([3]; Log Drug Concentration (uM) -5): 40.045% and 36.193% and 55.429%
% GFP Positive ([3]; Log Drug Concentration (uM) -6): 38.435% and 46.924% and 37.203%
% GFP Positive ([3]; Log Drug Concentration (uM) -9): 35.618% and 35.142% and 32.671%
% GFP Positive [3, 10]: 34.002% and 36.532% and 30.423%

C[C@H](Cn1cnc2c(N)ncnc21)OCP(=O)(O)O [TFV]
% GFP Positive ([3]; Log Drug Concentration (uM) 0): 36.84% and 37.843%
% GFP Positive ([3]; Log Drug Concentration (uM) -1): 31.924% and 40.715% and 38.216%
% GFP Positive ([3]; Log Drug Concentration (uM) -2): 37.754% and 35.95% and 31.757%
% GFP Positive ([3]; Log Drug Concentration (uM) -3): 42.49% and 36.095% and 44.333%
% GFP Positive ([3]; Log Drug Concentration (uM) -4): 39.731% and 37.304% and 35.107%
% GFP Positive ([3]; Log Drug Concentration (uM) -5): 38.31% and 35.838% and 38.644%
% GFP Positive ([3]; Log Drug Concentration (uM) -6): 32.278% and 38.458% and 41.384%
% GFP Positive ([3]; Log Drug Concentration (uM) -9): 41.35% and 30.768%
% GFP Positive [3, 10]: 42.035% and 35.935% and 39.23%

CCCCCCCCCCCCCCCCCCCCCCOC(=O)[C@H](Cc1ccccc1)NP(=O)(CO[C@H](C)Cn1cnc2c(N)ncnc21)Oc1ccccc1 (stereo partly drawn) [M1TFV]
water solubility, individual replicates ([1]; Figure 1C source data): 0.0003886
solubility at 48 h [1, 8]: 0.276 µg/mL (≈ 0.338 µM)
solubility at 48 h [1, 9]: 2 µg/mL (≈ 2.44 µM)
hydrolytic stability across pH [4]: enhanced prodrug stability over a broader pH range
EC50 [2]: 109 nM
HIV-1 RT activity (Figure 2C source data) ([2]; 5e-5 nM): 44.264 and 8.411 and 11.973
HIV-1 RT activity (Figure 2C source data) ([2]; 0.0005 nM): 42.363 and 4.488 and 5.375 and 2.931
HIV-1 RT activity (Figure 2C source data) ([2]; 0.005 nM): 26.663 and 5.953 and 9.965 and 9.489
HIV-1 RT activity (Figure 2C source data) ([2]; 0.05 nM): 19.017 and 5.47 and 12.158 and 10.741
HIV-1 RT activity (Figure 2C source data) ([2]; 0.5 nM): 23.553 and 6.74 and 16.993 and 9.609
HIV-1 RT activity (Figure 2C source data) ([2]; 5 nM): 22.939 and 4.566 and 20.189 and 10.617
HIV-1 RT activity (Figure 2C source data) ([2]; 50 nM): 10.793 and 9.389 and 15.273 and 9.576
HIV-1 RT activity (Figure 2C source data) ([2]; 500 nM): 1.18 and 0.8 and 2.373 and 0.711
HIV-1 RT activity (Figure 2C source data) ([2]; 5000 nM): 0.069 and 0.042 and 0.107 and 0.063
% GFP Positive ([3]; Log Drug Concentration (uM) 0): 0.301% and 0.201% and 0.21%
% GFP Positive ([3]; Log Drug Concentration (uM) -1): 3.432% and 0.342% and 0.154%
% GFP Positive ([3]; Log Drug Concentration (uM) -2): 34.73% and 38.138% and 34.265%
% GFP Positive ([3]; Log Drug Concentration (uM) -3): 36.744% and 32.312% and 31.881%
% GFP Positive ([3]; Log Drug Concentration (uM) -4): 44.656% and 35.338% and 30.526%
% GFP Positive ([3]; Log Drug Concentration (uM) -5): 36.768% and 35.49% and 33.571%
% GFP Positive ([3]; Log Drug Concentration (uM) -6): 35.681% and 31.592% and 30.989%
% GFP Positive ([3]; Log Drug Concentration (uM) -9): 32.583% and 32.39% and 32.614%
% GFP Positive [3, 10]: 35.706% and 34.095% and 37.882%
prodrug stability in human plasma [5]: greater prodrug stability is observed following heat-inactivation

C[C@@H](Cn1cnc2c(N)ncnc21)OCP(=O)(O)OP(=O)(O)OP(=O)(O)O [TFV-DP, TFV-diphosphate]
EC90 linked to HIV-1 prevention [6]: 16−48 fmol/10^6 cells
human EC90 [6]: 40 fmol/10^6 cells
intracellular half-life [7]: 60 to 100 h
